Target: hemoglobin (Homo sapiens, UniProt P68871+P69905)
Test: resonance Raman spectroscopy of oxygenated hemoglobin, percentage of "R" state
Type: biochemical
Settings: varying mole ratio to hemoglobin tetramer, 532 nm excitation, oxygen atmosphere
Source text: In order to evaluate the effect of ferulic acid on stabilizing the oxygenated hemoglobin in the low oxygen affinity “T” state, compounds including 2,3-BPG (group A0) and ferulic acid (group A1) are mixed with hemoglobin as a function of their mole ratio to hemoglobin, followed by the resonance Raman spectroscopy measurements at 532 nm excitation wavelength under the oxygen atmosphere. The percentages of the high oxygen affinity “R” state for hemoglobin treated with 2,3-BPG (shown in FIG. 2a, as reference) and ferulic acid (shown in FIG. 2b) are analyzed from the resonance Raman spectroscopy measurements. In more specific, the percentage of high oxygen affinity “R” state for each treated hemoglobin was obtained by fitting a simulated spectrum comprised of adjustable weighing factors of the T and R states of pure hemoglobin to the obtained resonance Raman spectrum of treated hemoglobin.

hemoglobin, sequence (P69905 2-142): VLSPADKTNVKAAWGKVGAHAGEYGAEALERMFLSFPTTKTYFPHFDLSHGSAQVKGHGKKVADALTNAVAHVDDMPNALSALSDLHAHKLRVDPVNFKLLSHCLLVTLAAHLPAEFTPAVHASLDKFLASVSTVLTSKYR
hemoglobin, sequence (P68871 2-147): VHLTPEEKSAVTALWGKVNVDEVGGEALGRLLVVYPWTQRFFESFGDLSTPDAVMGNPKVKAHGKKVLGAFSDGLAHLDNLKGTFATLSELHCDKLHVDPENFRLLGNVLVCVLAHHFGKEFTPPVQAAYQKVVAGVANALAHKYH

SMILES | "R" state suppression efficiency
O=C(O)C(COP(=O)(O)O)OP(=O)(O)O (centres unmarked) [2,3-BPG, 2,3-bisphosphoglycerate] | about 20%
COc1cc(/C=C/C(=O)O)ccc1O [ferulic acid] | higher than 50%
